How the values were obtained:
[1] = tested on: methyl bromide-degrading bacteria; assay: Methyl bromide removal in the biotrickling filter
Source text: A biotrickling filter was constructed as schematically represented in FIG. 2. The apparatus included three packed bed sections filled with lava rock, perlite or polyurethane as packing materials. Other equipment included an air supply, a methyl bromide supply, recycle liquid circulation, a nutrient supply (as a complete mineral medium), and a pH control by automatic addition of NaOH. The biotrickling filter was usually operated at standard conditions as specified in Table 1.
Cultures of methyl bromide-degrading bacteria were obtained by inoculating or exposing the substrate component of the apparatus with a variety of natural sources or materials, such as soil and sediment. A continuous supply of a low concentration (about 0 to about 10 g/m^3) of methyl bromide was supplied to the apparatus. The first signs of methyl bromide removal were observed after about 6-12 days of operation of the apparatus. The methyl bromide elimination capacity seemed to reach a maximum value after about 35-40 days of operation. During operation, the pH in the recycle liquid declined, small amounts of bromide were produced in the recycle liquid, and the CO2 concentration in the outlet air increased.
The fate of methyl bromide in the biotrickling filter was determined by comparing the rate of methyl bromide removal with the rates of CO2 production, bromide ion production and NaOH consumption as expected from the biodegradation reaction stoichiometry. Biodegradation of methyl bromide and pH control occur according to the following reactions 2CH3Br+3O2→2HBr+2 CO2+2H2O Equation 3 HBr+NaOH→NaBr+H2O Equation 4
The effect of the liquid recycle or trickling rate was examined at the lower and higher end of the range of recycle rates commonly employed in biotrickling filters. Methyl bromide removal was the same at a trickling rates of 2.55 and 22.2 L/h, corresponding to superficial liquid velocities of 2.0 and 17.7 m/h, respectively (Table 2).
The maximum elimination capacity of methyl bromide in the biotrickling filter was determined by stepwise increasing the methyl bromide concentration. Depending on the inlet concentration, the following phases can be distinguished: […]

[2] = Air/organic phase partition coefficient of methyl bromide; type: physicochemical; settings: gas over liquid concentration
Protocol: If necessary, the air/organic phase partition coefficients of methyl bromide in these and other potential organic liquids may be determined by adding a known amount of an organic liquid and methyl bromide to a 250 mL flask with TEFLON-lined silicon septa. A gas headspace may be analyzed for methyl bromide by gas chromatography, and the partition of methyl bromide may be calculated. In certain embodiments, corn oil may be preferred since the air/corn oil partition coefficient for methyl bromide is 0.02, i.e., about ten times lower than with water. Based on calculations, a Henry coefficient of 0.005 may be ideal for load dampening. The organic phase should meet various requirements, such as a low vapor pressure, low toxicity, non-miscibility with water, and being non-biodegradable. Additional examples of liquids may include di-n-octylphtalate, di-n-nonylphtalate, polydimethylsiloxane, and silicone oil. Methyl bromide concentrations in the inlet and outlet air may be determined (continuously or semi-continuously) with a photoionization detector (PID) analyzer, for example. […] Potential carry over of aerosol to the outlet stream may be determined to evaluate whether a demister might be beneficial. For either the GAC or liquid absorption system, the results may be analyzed with mathematical model (see FIG. 19).

| SMILES | NaBr concentration in the recycle liquid at which inhibition of methyl bromide removal was observed ([1]; recycle liquid (48 g/L)) | Air/corn oil partition coefficient [2] | Removal efficiency ([1]; gas flow cocurrent, EBRT = 94 s, inlet 3.042 g/m^3) | Removal efficiency ([1]; gas flow countercurrent (standard operation), EBRT = 94 s, inlet 3.713 g/m^3) | Concentration at which a reduction of the elimination capacity (toxic effect on microorganisms) was observed ([1]; inlet air concentration (3300 ppm)) | Removal efficiency ([1]; low inlet concentrations increasing up to 3 g/m^3) | Removal efficiency ([1]; superficial liquid velocity 2.0 m/h (standard operation), EBRT = 94 s, inlet 2.927 g/m^3) | Removal efficiency ([1]; superficial liquid velocity 17.7 m/h, EBRT = 94 s, inlet 2.927 g/m^3) |
| --- | --- | --- | --- | --- | --- | --- | --- | --- |
| [Br-].[Na+] [NaBr, sodium bromide] | ≥ 0.47 M |  |  |  |  |  |  |  |
| CBr [Methyl bromide] |  | 0.02 | 63% | 70% | greater than 13 g/m^3 | greater than 96% | 89% | 91% |

Source: US7311743B2, “Biofiltration apparatus and method for reducing methyl bromide concentration in a volume of gas” (Energy Resource Institute, Inc., priority 2004, dated 2007)
